Where a SMILES comes first, the peptide text is derived from it. The star is where a group is joined. Cbz = O=C(OCc1ccccc1)*; CH2F = FC*
Key:
Type in all cases: cell-based, human
OVCAR8 cells = assay: CCK-8 cell viability assay; settings: for effect on cell viability: 100 nM for 4 days, FIG. 4D
Procedure: (§1) Briefly, cells were cultured in 96-well plates and CCK-8 reagent was added to cells. After 2-h incubation at 37° C., absorbance was measured using a Bio-Rad plate reader at 460 nm. In vitro invasion was assayed using Matrigel invasion chamber available from Cell Biolabs Inc (San Diego, CA) according to manufacturer's protocol. Flow cytometry-based cell apoptosis was determined using Dead Cell Apoptosis Kits with Annexin V (Thermo Fisher, Cat #V13242) according to manufacturer's protocol. Lipid raft fractions were prepared using Minute™ Plasma Membrane-Derived Lipid Raft Isolation Kit (Invent Biotechnologies, Plymouth, MN) according to manufacturer's protocol.

HEY cells = assay: CCK-8 cell viability assay; settings: for effect on cell viability: 100 nM for 4 days, FIG. 4D
Procedure: as §1

[1] = test system: FAP-PRKDC co-localization in HEY cells; assay: Confocal immunofluorescence staining of FAP and PRKDC; settings: 5 mM MBC for 1 day, FIG. 6E
Procedure: (§2) Immunofluorescence staining: Cells were plated on coverslips for overnight and then fixed with 4% paraformaldehyde followed by permeabilization with 1% Triton X-100. Cells were washed three times with 1×PBS (Thermo Fisher, Cat #: 10010049). After brief blocking with 1% BSA, cells were incubated with anti-FAP mAb (Cat #sc-65398, Santa Cruz Biotechnology, Santa Cruz, CA) or anti-PRKDC polyclonal antibody (Cat #ab32566, Abcam) for 1 h and then with secondary antibody (Alexa Fluor® 488 and Alexa Fluor® 568) for another hour. Coverslips were mounted on […] using Permount solution (Cat #: P36961, Thermo Fisher) and cell fluorescence staining was viewed with confocal microscopy (Carl Zeiss Vision, LSM510). To locate lipid rafts, recombinant Cholera toxin subunit B conjugated with Alexa Fluor™ 647 (Cat #C34778, Thermo Fisher) was included during incubation with secondary antibody.
(§3) Both FAP and PRKDC have been reported to be present in the lipid rafts with unknown function (13, 14). We investigated whether FAP-PRKDC interaction occurred in lipid rafts. We first isolated lipid fraction from HEY and OVCAR8 cells followed by western blot analysis to detect FAP and PRKDC. As well characterized lipid raft marker caveolin-1, both FAP and PRKDC were readily seen in lipid raft isolates (FIG. 6C). […]

[2] = test system: FAP-PRKDC co-localization in OVCAR8 cells; assay: as above; settings: 5 mM MBC for 1 day, FIG. 6E
Procedure: as §2, §3

Row | Compound | effect on cell viability (OVCAR8 cells; OVCAR8 cells) | effect on cell viability (HEY cells; HEY cells) | further results
1 | CC(C)[C@H](N)C(=O)N1CCC[C@H]1B(O)O [Alabostat, Talabostat] |  |  | effect on survival (OVCAR8 cells; OVCAR8 cells, 1 mM Batimastat or 1 μM Talabostat alone or in combination, 4 days, FIG. 9): little effect; effect on survival (HEY cells; HEY cells, 1 mM Batimastat or 1 μM Talabostat alone or in combination, 4 days, FIG. 9): little effect
2 | CC[C@H](NC(=O)[C@H](C)NC)C(=O)N1C[C@@H](O)C[C@H]1Cc1c(-c2[nH]c3cc(F)ccc3c2C[C@@H]2C[C@H](O)CN2C(=O)[C@H](CC)NC(=O)[C@H](C)NC)[nH]c2cc(F)ccc12 [Birinapant] | much less inhibitory effect | much less inhibitory effect | 
3 | Cc1c(-c2c(-c3ccc(F)o3)sc3ncnc(O[C@H](Cc4ccccc4OCc4ccnn4CC(F)(F)F)C(=O)O)c23)ccc(OCCN2CCN(C)CC2)c1Cl [S63845] | much less inhibitory effect | much less inhibitory effect | 
4 | COCCn1c2c([n+](Cc3cnccn3)c1C)C(=O)c1ccccc1C2=O [YM155] | significant decrease in cell viability | significant decrease in cell viability | 
5 | COC(=O)C[C@H](NC(=O)[C@H](C)NC(=O)[C@@H](NC(=O)OCc1ccccc1)C(C)C)C(=O)CF [zVAD] (Cbz-Val-Ala-Asp(OMe)-CH2F) |  |  | effect on FAP shRNA-led cell death (OVCAR8 cells; OVCAR8 cells transduced with FAP shRNA, 10 μM from one day post-infection, total 4 days, FIG. 2E): blocked anti-FAP shRNA-led cell death; effect on FAP shRNA-led cell death (HEY cells; HEY cells transduced with FAP shRNA, 10 μM from one day post-infection, total 4 days, FIG. 2E): blocked anti-FAP shRNA-led cell death
6 | Methyl-beta-cyclodextrin [MBC] |  |  | FAP-PRKDC co-localization after disruption of lipid rafts [1]: undetectable FAP-PRKDC co-localization; FAP-PRKDC co-localization after disruption of lipid rafts [2]: undetectable FAP-PRKDC co-localization

— patent publication US20260062705A1, “TREATMENT FOR OVARIAN CANCER WITH OLIGONUCLEOTIDES TARGETING FIBROBLAST ACTIVATION PROTEIN ALPHA” (UNIVERSITY OF FLORIDA RESEARCH FOUNDATION, INCORPORATED, priority 2022, published 2026)
